Test results as given in publication PMC9841431 (Nucleic Acids Research, 2022).

Key:
[1] = tested on: M. tuberculosis mrx2 KO mutant (Δmrx2); assay type: cell-based; settings: times higher
[2] = biological target: Mrx2 mutants (Mycobacterium tuberculosis, UniProt O53193, G95S); assay type: biochemical, M. tuberculosis

| Compound | MIC of Δmrx2 relative to M. tuberculosis H37Rv [1] [times] | Activity of Mrx2G95S against the compound [2] |
| --- | --- | --- |
| O=[N+]([O-])c1cc2cc3ccc4oc([N+](=O)[O-])cc4c3cc2o1 [nNF-C2, 2,8-Dinitronaphtho[2,1-b:7,6-b']difuran] | 8 | maintained its ability to metabolize |
| COC(=O)c1ccc2c(ccc3oc([N+](=O)[O-])cc32)c1 [nNF-C4, Methyl 2-nitronaphtho[2,1-b]furan-7-carboxylate] | 16 |  |
